# Assay results as given in patent US20240092759A1, “Non-Covalent Inhibitors of the Main Protease of SARS-CoV-2 and Methods of Use” (YALE UNIVERSITY, priority 2021, published 2024).
# “And” between values parts separate entries of the source, which are not always exact repeats. Equal entries are not always repeated. Where two headings read alike, the source gives them in different places.
# Biological target: recombinant SARS-Cov-2 M^pro (Severe acute respiratory syndrome coronavirus 2 (2019-nCoV) (SARS-CoV-2), UniProt P0DTD1)
# Test: biochemical
# [1] = read-out: IC50 (μM), inhibition of SARS-Cov-2 M^pro, Table 4
# [2] = IC50 (μM), inhibition of SARS-Cov-2 M^pro, Table 4
# [3] = read-out: IC50 (μM), inhibition of SARS-CoV-2 M^pro, Table 1, 100 nM M^pro, triplicate, perampanel: fluorescence of compound interfered with assay
Compound,IC50 [1] [µM],IC50 (read-out: IC50) [µM],IC50 [3] [µM],also measured
COc1cc(CCOc2cc(Cl)cc(-c3cc(-c4ccccc4C#N)cn(-c4cccnc4)c3=O)c2)cc(OC)c1 [Compound 30],> 1,–,–,–
COc1cc(F)cc(-c2cc(-c3c[nH]c(=O)[nH]c3=O)cn(-c3cccnc3)c2=O)c1 [Compound 20],10 to 100,–,–,–
COc1ccc(-c2cc(-c3cccc(Cl)c3)c(=O)n(-c3cccnc3)c2)c(C#N)n1 [Compound 22],10 to 100,–,–,–
N#Cc1ccccc1-c1cc(-c2cccc(Cl)c2)c(=O)n(-c2ccc[n+]([O-])c2)c1 [Compound 10],15.6 ± 2.37,–,–,–
N#Cc1[nH]c(=O)ccc1-c1cc(-c2cccc(Cl)c2)c(=O)n(-c2cccnc2)c1 [Compound 23],10,–,–,–
"N#Cc1ccccc1-c1cc(-c2ccccn2)cn(-c2ccccc2)c1=O [Perampanel, perampanel, reference compound]",–,–,–,"IC50 (IC50): 100 to 250 µM and > 100 µM; IC50 (IC50 (μM), inhibition of SARS-CoV-2 M^pro, Table 1, 100 nM M^pro, triplicate, perampanel: fluorescence of compound interfered with assay): 100 to 250 µM; IC50 [2]: 100 µM"
"O=c1[nH]cc(-c2cc(-c3cccc(Cl)c3)c(=O)n(-c3cccnc3)c2)c(=O)[nH]1 [Compound 8, 5-(3-(3-Chlorophenyl)-2-oxo-2H-[1,3′-bipyridin]-5-yl)pyrimidine-2,4(1H,3H)-dione]",6.38 ± 1.21,6.4,–,–
O=c1[nH]cc(-c2cc(-c3cc(Cl)cc(OCc4ccsc4Cl)c3)c(=O)n(-c3cccnc3)c2)c(=O)[nH]1 [Compound 49],0.0265 ± 0.004,–,–,–
"Cc1ccccc1COc1cc(Cl)cc(-c2cc(-c3c[nH]c(=O)[nH]c3=O)cn(-c3cccnc3)c2=O)c1 [Compound 31, 5-(3-(3-Chloro-5-((2-methylbenzyl)oxy)phenyl)-2-oxo-2H-[1,3′-bipyridin]-5-yl)pyrimidine-2,4(1H,3H)-dione]",–,–,0.1 ± 0.007,IC50 (IC50): 0.11 µM
"N#Cc1ccccc1-c1cc(-c2cc(Cl)cc(OCCc3ccccc3)c2)c(=O)n(-c2cccnc2)c1 [Compound 17, 2-(3-(3-Chloro-5-phenethoxyphenyl)-2-oxo-2H-[1,3′-bi-pyridin]-5-yl)benzonitrile]",0.51 ± 0.015,0.51,0.51 ± 0.02,–
CCNC(=O)COc1cc(Cl)cc(-c2cc(-c3ccccc3C#N)cn(-c3cccnc3)c2=O)c1 [Compound 33],0.5 to 1,–,–,–
"O=c1[nH]cc(-c2cc(-c3cc(Cl)cc(OCc4c(F)cccc4F)c3)c(=O)n(-c3cccnc3)c2)c(=O)[nH]1 [Compound 36, 5-(3-(3-Chloro-5-((2,6-difluorobenzyl)oxy)phenyl)-2-oxo-2H-[1,3′-bipyridin]-5-yl)pyrimidine-2,4(1H,3H)-dione]",0.036,0.018 to 0.037,–,–
"COc1cc(Cl)cc(-c2cc(-c3c[nH]c(=O)[nH]c3=O)cn(-c3cccnc3)c2=O)c1 [Compound 18, 5-(3-(3-Chloro-5-methoxyphenyl)-2-oxo-2H-[1,3′-bipyridin]-5-yl)pyrimidine-2,4(1H,3H)-dione]",1.2 ± 0.03,1.2,1.2 ± 0.03,–
"O=c1[nH]cc(-c2cc(-c3cc(Cl)cc(OCC4CC4)c3)c(=O)n(-c3cccnc3)c2)c(=O)[nH]1 [Compound 40, 5-(3-(3-Chloro-5-(cyclopropylmethoxy)phenyl)-2-oxo-2H-[1,3′-bipyridin]-5-yl)pyrimidine-2,4(1H,3H)-dione]",–,–,–,IC50 [2]: ~290 µM
N#Cc1cccc(-c2cc(-c3c[nH]c(=O)[nH]c3=O)cn(-c3cccnc3)c2=O)c1 [Compound 19],10,–,–,–
"O=c1[nH]cc(-c2cc(-c3cc(Cl)cc(OCc4ccccc4F)c3)c(=O)n(-c3cccnc3)c2)c(=O)[nH]1 [Compound 34, 5-(3-(3-Chloro-5-((2-fluorobenzyl)oxy)phenyl)-2-oxo-2H-[1,3′-bipyridin]-5-yl)pyrimidine-2,4(1H,3H)-dione]",0.024,0.018 to 0.037,0.024 ± 0.007,–
"CCCCOc1cc(Cl)cc(-c2cc(-c3c[nH]c(=O)[nH]c3=O)cn(-c3cccnc3)c2=O)c1 [Compound 25, 5-(3-(3-Butoxy-5-chlorophenyl)-2-oxo-2H-[1,3′-bipyridin]-5-yl)pyrimidine-2,4(1H,3H)-dione]",0.25 ± 0.089,–,0.25 ± 0.09,–
"O=c1[nH]cc(-c2cc(-c3cc(Cl)cc(OCCc4ccccc4)c3)c(=O)n(-c3cccnc3)c2)c(=O)[nH]1 [Compound 29, 5-(3-(3-Chloro-5-phenethoxyphenyl)-2-oxo-2H-[1,3′-bipyridin]-5-yl)pyrimidine-2,4(1H, 3H)-dione]",–,0.11,0.11 ± 0.013,–
"CC(C)CCOc1cc(Cl)cc(-c2cc(-c3c[nH]c(=O)[nH]c3=O)cn(-c3cccnc3)c2=O)c1 [Compound 26, 5-(3-(3-Chloro-5-(isopentyloxy)phenyl)-2-oxo-2H-[1,3′-bipyridin]-5-yl)pyrimidine-2,4(1H, 3H)-dione]",0.19 ± 0.026,–,0.19 ± 0.03,–
O=c1[nH]cc(-c2cc(-c3cc(Cl)cc(OCc4ccccc4)c3)c(=O)n(-c3cccnc3)c2)c(=O)[nH]1 [Compound 21],0.128 ± 0.015,0.128,–,–
O=c1[nH]cc(-c2cc(-c3cc(Cl)cc(OCC4CC4)c3)c(=O)n(-c3cccnc3)c2)c(=O)[nH]1 [Compound 43],0.037 ± 0.004,–,–,–
"N#Cc1ccccc1-c1cc(-c2cc(Cl)cc(OCc3ccccc3)c2)c(=O)n(-c2cccnc2)c1 [Compound 14, 2-(3-(3-(Benzyloxy)-5-chlorophenyl)-2-oxo-2H-[1,3′-bipyridin]-5-yl)benzonitrile]",0.28 ± 0.05,0.28,0.28 ± 0.05,–
N#Cc1ccccc1-c1cc(-c2cc(Cl)cc(Cl)c2)c(=O)n(-c2ccc[n+]([O-])c2)c1 [Compound 11],5 to 20,–,–,–
"COCCOc1cc(Cl)cc(-c2cc(-c3ccccc3C#N)cn(-c3cccnc3)c2=O)c1 [Compound 16, 2-(3-(3-Chloro-5-(2-methoxyethoxy)phenyl)-2-oxo-2H-[1,3′-bipyridin]-5-yl)benzonitrile]",0.47 ± 0.02,–,0.47 ± 0.02,–
"N#Cc1ccccc1-c1cc(-c2cccc(Cl)c2)c(=O)n(-c2cccnc2)c1 [Compound 6, 2-(3-(3-Chlorophenyl)-2-oxo-2H-[1,3′-bipyridin]-5-yl)benzonitrile]",–,10,9.99 ± 2.5,–
O=c1[nH]cc(-c2cc(-c3cc(F)c(F)c(OCc4ccccc4F)c3)c(=O)n(-c3cccnc3)c2)c(=O)[nH]1 [Compound 45],0.03 ± 0.004,–,–,–
"Cc1cccc(COc2cc(Cl)cc(-c3cc(-c4c[nH]c(=O)[nH]c4=O)cn(-c4cccnc4)c3=O)c2)c1 [Compound 32, 5-(3-(3-Chloro-5-((3-methylbenzyl)oxy)phenyl)-2-oxo-2H-[1,3′-bipyridin]-5-yl)pyrimidine-2,4(1H,3H)-dione]",0.11 ± 0.035,–,0.11 ± 0.035,IC50 (IC50): 0.1 µM
"O=c1[nH]cc(-c2cc(-c3cc(Cl)cc(OCc4cccc(F)c4)c3)c(=O)n(-c3cccnc3)c2)c(=O)[nH]1 [Compound 35, 5-(3-(3-Chloro-5-((3-fluorobenzyl)oxy)phenyl)-2-oxo-2H-[1,3′-bipyridin]-5-yl)pyrimidine-2,4(1H,3H)-dione]",0.037,0.018 to 0.037,–,–
CC(C)(O)CCOc1cc(Cl)cc(-c2cc(-c3c[nH]c(=O)[nH]c3=O)cn(-c3cccnc3)c2=O)c1 [Compound 28],0.25 to 0.5,–,–,–
